In data set [1] the test system is niacin-induced flushing in mice. The data set is described as follows: Block of niacin-induced flushing in mice, Laser Dopler. Format: in vivo. The following applies: for change from baseline (flush) at 3 minutes / change above baseline (flush) at 15 minutes: mice given compound about 10 minutes before niacin; for change from baseline (flush) at 3 minutes: 3 minutes after niacin; for change above baseline (flush) at 15 minutes: at/within 15 minutes after niacin. The method, then:
Flushing was measured using a Laser Dopler.
In these experiments, the control group contained anesthetized mice that were administered niacin alone and flushing above baseline was measured over time. […]

In a further data set the test system is free fatty acid release. As to the kind of experiment: NEFA competition: free fatty acids in blood of mice (NEFA-C assay kit). The class given is in vivo. As to conditions: for concentration of free fatty acid: blood after 10 minutes (vehicle sample 0.9 mM). The procedure: After 10 minutes the mice were euthanized and blood was collected. The blood samples were processed and tested for free fatty acid release using the non-esterified fatty-acid (NEFA) assay (the NEFA-C assay kit from Waco Chemicals USA, Richmond, Va.).

For another data set, the system named is mice. The data set is described as follows: Flush in response to PGD2 in mice treated with niacin receptor partial agonist. Format: in vivo. The following applies: mice pretreated with Compound 1 and niacin. The method, then:
After re-establishment of baseline, PGD2 was administered and flushing was recorded. […] Baseline was then re-established at 20% above baseline and PGD2 was administered.

Data set [2] concerns dysmenorrhea or painful menstruation. The following applies: 80 women, 100 mg niacin twice daily, then every 2 to 3 hours during heavy cramps; cited from earlier work.

Turning to `C1Cc2[nH]nc(-c3nnn[nH]3)c2C1` [Compound 1, 3-(1H-Tetrazol-5-yl)-1,4,5,6-tetrahydro-cyclopentapyrazole], in data set [1], the “change from baseline (flush) at 3 minutes” value (“change from baseline (flush)” for short) amounted to 10% and the “change above baseline (flush) at 15 minutes” value (shortened to “change above baseline (flush)”) was “about 20%”. Further, the “flushing induced by niacin” value in data set [1] (mice, partial agonist given prior to niacin) is given as “significantly reduced”. In the data set with free fatty acid release (Compound 1 plus niacin), the “interference with the reduction in free fatty acids induced by niacin” value is “does not interfere” and the “concentration of free fatty acid” value amounted to 0.38 mM.
In the case of `O=C(O)c1cc(Cc2cccc(F)c2)[nH]n1` [Compound 2, 5-(3-Fluoro-benzyl)-1H-pyrazole-3-carboxylic acid], in data set [1], the “change from baseline (flush)” value was 0% and the “change above baseline (flush)” value is recorded as “about 15%”.
The like results for `O=C(O)c1cc(Cc2cccc(Cl)c2)[nH]n1` [Compound 3, 5-(3-Chloro-benzyl)-1H-pyrazole-3-carboxylic acid] were, in that order, “about 18%” and “about 13%”.
Take `O=C(O)c1cc(Cc2cccc(Br)c2)[nH]n1` [Compound 4, 5-(3-Bromo-benzyl)-1H-pyrazole-3-carboxylic acid]: in data set [1], the “change from baseline (flush)” value turned out to be 15% and the “change above baseline (flush)” value is reported as “about 30%”.
As to `CCCCC[C@H](O)/C=C/[C@H]1C(=O)C[C@H](O)[C@@H]1C/C=C\CCCC(=O)O` [PGD2, prostaglandin D2], the “time of flush peak after PGD2 administration” value with mice is “about 6 minutes”. In the data set on mice (baseline re-established at 20% above baseline), the “time after PGD2 administration at which flushing began” value is listed as “about 1.5 minutes”. Further, the “flush peak, % of the original baseline” value in the data set on mice (about 6 minutes after PGD2) is given as “about 70%”.
With `O=C(O)c1cccnc1` [niacin, nicotinic acid, reference compound], the “time after which mice began to flush” value in data set [1] (anesthetized mice, niacin alone) came to 1.5 min. The “subjects who experienced significant relief” value in data set [2] is on record as “About 90%”. Further, in the data set with free fatty acid release (vehicle plus niacin), the “concentration of free fatty acid” value came out at 0.4 mM.

The values above are taken from patent US20080139628A1 (ARENA PHARMACEUTICALS, INC., priority 2004, published 2008).
